The target in this assay is recombinant human MGAT2 (Homo sapiens (Human), UniProt Q3SYC2). Description: Measurement of human MGAT2 inhibitory activity. It counts as biochemical. A digest of the protocol:
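RapidFire ESI-MS read-out of the diolein/diolein-d5 peak ratio gave % inhibition, with no-enzyme and full-enzyme wells as 100% and 0%. Reactions ran 1 h at room temperature at pH 7.4 (phosphate, 2 mmol/L DTT), using Flag-tagged human MGAT2 membranes from Sf9 cells and a substrate solution of 30 μmol/L 2-oleoylglycerol and 10 μmol/L oleoyl-CoA.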

Where [1] appears, read: read-out: IC50 (concentration exhibiting 50% enzyme inhibition), Table 52.
The mark [2] stands for this setting: read-out: IC50 (concentration exhibiting 50% enzyme inhibition), Table 53.

Each structure is given as a SMILES string. Read-outs that look alike come from different tables or passages of the source.

Sequence of recombinant human MGAT2 (Q3SYC2 whole entry): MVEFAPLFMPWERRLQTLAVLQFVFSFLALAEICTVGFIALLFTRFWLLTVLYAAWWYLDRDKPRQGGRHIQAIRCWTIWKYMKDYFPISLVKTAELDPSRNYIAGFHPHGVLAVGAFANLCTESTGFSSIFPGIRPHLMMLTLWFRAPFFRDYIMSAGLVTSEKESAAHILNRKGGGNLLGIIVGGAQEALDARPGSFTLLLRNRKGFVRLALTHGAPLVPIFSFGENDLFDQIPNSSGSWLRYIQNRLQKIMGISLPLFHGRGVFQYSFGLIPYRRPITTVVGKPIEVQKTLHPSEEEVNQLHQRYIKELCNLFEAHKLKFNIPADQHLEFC

Consider `CS(=O)(=O)CC(=O)Nc1c2c(nn1CCc1ccccc1)C[C@]1(CCc3cc(OCC(F)(F)F)ccc31)NC2=O` [Compound I-191], for which the IC50 under setting [1] came to 28 nM.
Take `CS(=O)(=O)CC(=O)Nc1c2c(nn1CCC1CC1)C[C@]1(CCc3c1ccc(N1CC(F)(F)C1)c3F)NC2=O` [II-260]: the IC50 under setting [2] came out at 14 nM.
Take `O=C(COC(F)(F)F)Nc1c2c(nn1CCC1CC1)C[C@]1(CCc3cc(OCC(F)(F)F)ccc31)NC2=O` [II-60]: the IC50 under setting [2] was 93 nM.
Still for that read-out and setting: the figure for `N#Cc1ccc(-n2nc3c(c2C(=O)NC2(C#N)CCCCC2)C(=O)N[C@@]2(CCc4cc(OCC(F)(F)F)ccc42)C3)nc1` [II-113] is 8.23 nM.
Turning to `N#Cc1ccc(-n2nc3c(c2C(=O)NCCO)C(=O)N[C@@]2(CCc4cc(OCC(F)(F)F)ccc42)C3)nc1` [II-180], under setting [2], the IC50 was determined as 58.5 nM.
Consider `CS(=O)(=O)CC(=O)Nc1c2c(nn1-c1ccc(C#N)cn1)C[C@]1(CCOc3cc(OCC(F)(F)F)ccc31)NC2=O` [Compound I-243], for which the IC50 under setting [1] was determined as 3.5 nM.
For `O=C(NCc1c2c(nn1CCC1CC1)C[C@]1(CCc3cc(OCC(F)(F)F)ccc31)NC2=O)c1ccon1` [Compound I-151], the IC50 under setting [1] was determined as 180 nM.
With `CS(=O)(=O)CC(=O)Nc1c2c(nn1CCCOC(F)F)C[C@]1(CCc3cc(OCC4CC(F)(F)C4)ccc31)NC2=O` [II-290], the IC50 under setting [2] was less than 1 nM.
With `CS(=O)(=O)CC(=O)Nc1c2c(nn1CCC(F)(F)F)C[C@]1(CCc3cc(OCC(F)(F)F)ccc31)NC2=O` [Compound I-256], the IC50 under setting [1] worked out at 160 nM.
On to `CS(=O)(=O)CC(=O)Nc1c2c(nn1CCC1CC1)C[C@]1(CCc3cc(N4CC(C(F)(F)F)C4)ccc31)NC2=O` [Compound I-234], for which the IC50 under setting [1] was 9.8 nM.
Consider `CS(=O)(=O)CC(=O)Nc1c2c(nn1-c1ccc(C#N)cc1)C[C@]1(CCc3cc(OCC(F)(F)F)ccc31)NC2=O` [Compound I-133], for which, under setting [1], the IC50 amounted to 14 nM.
As to `N#Cc1ccc(-n2nc3c(c2C(=O)NCC2(CO)CC2)C(=O)N[C@@]2(CCc4cc(OCC(F)(F)F)ccc42)C3)nc1` [II-131], under setting [2], the IC50 came to 5.79 nM.
The same measure, in the same setting: the figure for `Cc1ccc(-n2nc3c(c2C(=O)NS(C)(=O)=O)C(=O)N[C@@]2(CCc4cc(OCC(F)(F)F)ccc42)C3)cc1F` [II-223] is 52.4 nM; for `O=C1N[C@@]2(CCc3cc(OCC(F)(F)F)ccc32)Cc2nn(CCCOC(F)F)c(C(=O)NCC3(O)CC3)c21` [II-265] it is 54.4 nM; for `CS(=O)(=O)CC(=O)Nc1c2c(nn1-c1ccc(C#N)cn1)C[C@]1(CCc3cc(N4CC(F)C4)ccc31)NC2=O` [II-55] it is 44 nM.
Same read-out and setting: for `COC(=O)CC1CN(c2ccc3c(c2)CC[C@@]32Cc3nn(CCC4CC4)c(NC(=O)CS(C)(=O)=O)c3C(=O)N2)C1` [II-45] the value was 98 nM.
Consider `CS(=O)(=O)CC(=O)Nc1c2c(nn1CCC1CC1)C[C@]1(CCc3c1ccc(OCC(F)(F)F)c3F)NC2=O` [II-166], for which the IC50 under setting [2] was determined as 20.8 nM.
For `CS(=O)(=O)CC(=O)Nc1c2c(nn1-c1ccccn1)C[C@]1(CCc3cc(OCC(F)(F)F)ccc31)NC2=O` [Compound I-101], the IC50 under setting [1] turned out to be 17 nM.
On to `N#Cc1ccc(-n2nc3c(c2C(=O)NCC2(O)CCC2)C(=O)N[C@@]2(CCc4cc(OCC(F)(F)F)ccc42)C3)nc1` [II-108], for which the IC50 under setting [2] came to 2.51 nM.
For the molecule `Cc1ccc(-n2nc3c(c2C(=O)NS(=O)(=O)C2CC2)C(=O)N[C@@]2(CCc4cc(OCC(F)(F)F)ccc42)C3)cc1F` [II-226], the IC50 under setting [2] was 15.8 nM.
Take `Cc1ccc(-n2nc3c(c2NC(=O)CS(C)(=O)=O)C(=O)N[C@@]2(CCc4cc(OCC(F)(F)F)ccc42)C3)cc1` [Compound I-97]: the IC50 under setting [1] was determined as 6.9 nM.
Regarding `N#Cc1ccc(-n2nc3c(c2C(=O)NC2(C#N)CC2)C(=O)N[C@@]2(CCc4cc(OCC(F)(F)F)ccc42)C3)nc1` [II-110], under setting [2], the IC50 worked out at 30.4 nM.
The same measure, in the same setting: for `Cc1ccc(-n2nc3c(c2NC(=O)CS(C)(=O)=O)C(=O)N[C@@]2(CCc4cc(CCC(F)(F)F)ccc42)C3)nn1` [II-304] the value was 1.39 nM.
With `CS(=O)(=O)CC(=O)Nc1c2c(nn1-c1ccncn1)C[C@]1(CCc3cc(OCC(F)(F)F)ccc31)NC2=O` [Compound I-188], the IC50 under setting [1] is 52 nM.
With `CS(=O)(=O)CC(=O)Nc1c2c(nn1-c1ccc(C#N)cn1)C[C@@]1(CCc3cc(C4CC4)ccc31)NC2=O` [Compound I-242], under setting [1], the IC50 came to 3.6 nM.
Still for that read-out and setting: for `CS(=O)(=O)CC(=O)Nc1c2c(nn1-c1cc(C(F)(F)F)cc(C(F)(F)F)c1)C[C@]1(CCc3cc(OCC(F)(F)F)ccc31)NC2=O` [Compound I-130] the value was 505 nM.
On the same count and under the same terms, the figure for `CCCCn1nc2c(c1NC(=O)CS(C)(=O)=O)C(=O)N[C@@]1(CCc3cc(OCCCC(F)(F)F)ccc31)C2` [Compound I-51] is 16 nM.
Turning to `CS(=O)(=O)CCNC(=O)c1c2c(nn1CCC1CC1)C[C@]1(CCc3cc(OCC(F)(F)F)ccc31)NC2=O` [Compound I-87], the IC50 under setting [1] is 440 nM.
Consider `CC(F)(F)CNC(=O)c1c2c(nn1-c1ccc(C#N)cn1)C[C@]1(CCc3cc(OCC(F)(F)F)ccc31)NC2=O` [II-184], for which the IC50 under setting [2] worked out at 4.06 nM.
Consider `COc1nccc(NCc2c3c(nn2CCC2CC2)C[C@@]2(CCc4cc(OCC(F)(F)F)ccc42)NC3=O)n1` [II-68], for which the IC50 under setting [2] came out at 420 nM.
For the molecule `CS(=O)(=O)CC(=O)Nc1c2c(nn1-c1cccc(Cl)c1)C[C@]1(CCc3cc(OCC(F)(F)F)ccc31)NC2=O` [Compound I-124], the IC50 under setting [1] amounted to 22 nM.
On the same count and under the same terms, the figure for `CS(=O)(=O)CC(=O)NCc1c2c(nn1CCC1CC1)C[C@]1(CCc3cc(OCC(F)(F)F)ccc31)NC2=O` [Compound I-213] is 43 nM.
`COCCS(=O)(=O)NC(=O)c1c2c(nn1-c1ccc(C)cn1)C[C@]1(CCc3cc(OCC(F)(F)F)ccc31)NC2=O` [II-211]: the IC50 under setting [2] stood at 33.1 nM.
The same measure, in the same setting: the figure for `CS(=O)(=O)CC(=O)Nc1c2c(nn1C1CC3(COC3)C1)C[C@]1(CCc3cc(OCC(F)(F)F)ccc31)NC2=O` [II-11] is 64 nM.
As for `CS(=O)(=O)CC(=O)Nc1c2c(nn1CCCC#N)C[C@]1(CCc3cc(OCCCC(F)(F)F)ccc31)NC2=O` [Compound I-207], the IC50 under setting [1] stood at 17.5 nM.
As for `N#Cc1ccc(-n2nc3c(c2NC(=O)C2CS(=O)(=O)C2)C(=O)N[C@@]2(CCc4cc(OCC(F)(F)F)ccc42)C3)nc1` [II-72], the IC50 under setting [2] came out at 3.69 nM.
The same measure, in the same setting: the figure for `CS(=O)(=O)CC(=O)Nc1c2c(nn1CCCOC(F)(F)F)C[C@@]1(CCc3cc(CCC(F)(F)F)ccc31)NC2=O` [II-284] is less than 1 nM; for `CS(=O)(=O)CC(=O)Nc1c2c(nn1CCC1CC1)C[C@@]1(CCc3cc(OCCOCC(F)F)ccc31)NC2=O` [II-99] it is 9.59 nM.
On to `O=C1N[C@@]2(CCc3cc(OCC(F)(F)F)ccc32)Cc2nn(CCC3CC3)c(CNC(=O)C3CCC3)c21` [Compound I-147], for which, under setting [1], the IC50 worked out at 39 nM.
Still for that read-out and setting: the figure for `CS(=O)(=O)CC(=O)Nc1c2c(nn1CCC1CC1)C[C@](c1ccc(OCC(F)(F)F)cc1)(C(F)(F)F)NC2=O` [Compound I-70] is 54 nM.
With `CC(F)(F)COc1ccc2c(c1)CC[C@]21Cc2nn(-c3ccc(C(F)F)cc3)c(NC(=O)CS(C)(=O)=O)c2C(=O)N1` [II-288], the IC50 under setting [2] stood at 3.31 nM.
Take `Cc1ccc(-n2nc3c(c2NC(=O)CS(C)(=N)=O)C(=O)N[C@@]2(CCc4cc(OCC(F)(F)F)ccc42)C3)nc1` (single isomer, unassigned) [II-275]: under setting [2], the IC50 came to 6.15 nM.
Still for that read-out and setting: the figure for `Cc1cnnc(-n2nc3c(c2NC(=O)CS(C)(=O)=O)C(=O)N[C@@]2(CCc4cc(OCC(F)(F)F)ccc42)C3)c1` [II-140] is 6.4 nM.

Values taken from patent US11198695B2, “Fused ring derivative having MGAT-2 inhibitory activity” (Shionogi & Co., Ltd., priority 2017, dated 2021).
